Assays:
Assay in all cases: biochemical
CHK1 = target: T1, CHK1 (Homo sapiens, UniProt O14757); settings: read-out: Dundee KSS % inhibition at 1uM
T1 construct: gene CHEK1
Description: (§1) The METi and RAFi were screened against kinase panels (SelectScreen, Invitrogen; University of Dundee, Division of Signal Transduction Therapy, UK; Upstate Biotechnology/Millipore, Billerica, MA). In these selectivity assays the concentration of ATP was set to the Km value of ATP for each kinase tested to allow for a relative potency comparison between the various kinases. The compounds were tested at 1 µM final concentration. […] (A) Kinase selectivity screen (KSS) performed at Upstate Biotechnology. […] (B) KSS performed at University of Dundee (Division of Signal Transduction Therapy). […] (PDF) Click here for additional data file.

ERK8 = target: T2, ERK8 (Homo sapiens, UniProt Q8TD08); settings: read-out: Dundee KSS % inhibition at 1uM
T2 construct: gene MAPK15
Description: as §1

IKKbeta = target: T3, IKKbeta (Homo sapiens, UniProt O14920); settings: read-out: Dundee KSS % inhibition at 1uM
T3 construct: gene IKBKB
T3 sequence (O14920 whole entry): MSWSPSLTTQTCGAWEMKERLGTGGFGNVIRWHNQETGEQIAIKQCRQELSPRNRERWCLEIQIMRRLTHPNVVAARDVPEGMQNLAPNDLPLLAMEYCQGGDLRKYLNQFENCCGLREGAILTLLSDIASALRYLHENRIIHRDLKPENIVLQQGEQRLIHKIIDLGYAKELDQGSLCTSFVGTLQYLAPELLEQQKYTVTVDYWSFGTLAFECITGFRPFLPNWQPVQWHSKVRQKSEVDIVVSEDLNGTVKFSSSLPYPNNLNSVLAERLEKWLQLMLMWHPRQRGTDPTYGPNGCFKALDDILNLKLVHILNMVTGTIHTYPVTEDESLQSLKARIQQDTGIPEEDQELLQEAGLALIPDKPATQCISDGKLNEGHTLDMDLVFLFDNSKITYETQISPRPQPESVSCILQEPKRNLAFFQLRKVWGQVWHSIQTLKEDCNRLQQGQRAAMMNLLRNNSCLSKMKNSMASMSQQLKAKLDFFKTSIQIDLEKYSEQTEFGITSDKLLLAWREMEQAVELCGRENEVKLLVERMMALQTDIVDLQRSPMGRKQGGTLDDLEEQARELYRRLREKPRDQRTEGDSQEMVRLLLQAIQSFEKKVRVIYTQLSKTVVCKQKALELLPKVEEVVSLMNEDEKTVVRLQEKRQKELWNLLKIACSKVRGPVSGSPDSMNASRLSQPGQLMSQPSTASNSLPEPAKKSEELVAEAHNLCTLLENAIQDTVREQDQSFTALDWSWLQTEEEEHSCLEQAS
Description: as §1

SAPK2A/p38 = target: T4, SAPK2A/p38 (Homo sapiens, UniProt Q16539); settings: read-out: Dundee KSS % inhibition at 1uM
T4 construct: gene MAPK14
Description: as §1

EF2K = target: T5, EF2K (Homo sapiens, UniProt O00418); settings: read-out: Dundee KSS % inhibition at 1uM
T5 construct: gene EEF2K
Description: as §1

MAPKAP-K1b = target: T6, MAPKAP-K1b (Homo sapiens, UniProt P51812); settings: read-out: Dundee KSS % inhibition at 1uM
T6 construct: gene RPS6KA3
T6 sequence (P51812 whole entry): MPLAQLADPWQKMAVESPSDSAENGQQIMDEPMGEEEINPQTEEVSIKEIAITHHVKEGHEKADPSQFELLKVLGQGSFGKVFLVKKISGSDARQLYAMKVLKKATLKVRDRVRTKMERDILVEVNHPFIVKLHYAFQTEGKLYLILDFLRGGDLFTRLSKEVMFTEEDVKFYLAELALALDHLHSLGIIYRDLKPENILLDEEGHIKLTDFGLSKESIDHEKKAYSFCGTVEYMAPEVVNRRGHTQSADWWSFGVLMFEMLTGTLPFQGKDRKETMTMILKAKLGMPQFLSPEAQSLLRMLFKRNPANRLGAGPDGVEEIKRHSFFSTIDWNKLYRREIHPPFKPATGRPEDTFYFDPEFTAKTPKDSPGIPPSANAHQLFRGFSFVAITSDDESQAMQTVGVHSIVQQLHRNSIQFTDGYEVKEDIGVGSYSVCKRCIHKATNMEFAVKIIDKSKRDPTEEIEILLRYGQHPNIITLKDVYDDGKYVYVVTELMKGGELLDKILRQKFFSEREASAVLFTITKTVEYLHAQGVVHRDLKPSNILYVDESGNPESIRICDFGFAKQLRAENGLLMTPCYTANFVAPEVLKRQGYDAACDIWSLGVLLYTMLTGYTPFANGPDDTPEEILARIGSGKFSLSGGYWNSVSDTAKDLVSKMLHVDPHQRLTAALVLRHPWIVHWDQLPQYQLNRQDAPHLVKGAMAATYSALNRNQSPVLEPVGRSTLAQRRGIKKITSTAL
Description: as §1

SGK = target: T7, SGK (Homo sapiens, UniProt O00141); settings: read-out: Dundee KSS % inhibition at 1uM
T7 construct: gene SGK1
Description: as §1

DYRK2 = target: T8, DYRK2 (Homo sapiens, UniProt Q92630); settings: read-out: Dundee KSS % inhibition at 1uM
T8 sequence (Q92630 1-601): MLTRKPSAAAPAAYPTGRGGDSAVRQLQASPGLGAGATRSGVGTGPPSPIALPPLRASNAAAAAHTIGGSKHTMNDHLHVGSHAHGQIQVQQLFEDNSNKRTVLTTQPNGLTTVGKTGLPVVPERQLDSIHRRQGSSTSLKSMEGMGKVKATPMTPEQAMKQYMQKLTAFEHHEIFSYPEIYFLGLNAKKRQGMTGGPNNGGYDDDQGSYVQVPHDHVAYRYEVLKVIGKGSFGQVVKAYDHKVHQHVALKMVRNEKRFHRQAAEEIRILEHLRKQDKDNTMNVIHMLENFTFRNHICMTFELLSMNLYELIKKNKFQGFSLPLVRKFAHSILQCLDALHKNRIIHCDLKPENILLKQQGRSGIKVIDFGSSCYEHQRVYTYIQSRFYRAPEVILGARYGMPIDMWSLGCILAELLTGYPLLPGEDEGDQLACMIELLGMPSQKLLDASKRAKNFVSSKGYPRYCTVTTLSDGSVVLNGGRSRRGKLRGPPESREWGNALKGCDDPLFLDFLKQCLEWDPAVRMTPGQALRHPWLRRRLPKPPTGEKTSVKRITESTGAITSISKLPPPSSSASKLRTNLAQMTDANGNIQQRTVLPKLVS
Description: as §1

MKK1 = target: T9, MKK1 (Homo sapiens, UniProt Q02750); settings: read-out: Dundee KSS % inhibition at 1uM
T9 construct: gene MAP2K1
T9 sequence (Q02750 whole entry): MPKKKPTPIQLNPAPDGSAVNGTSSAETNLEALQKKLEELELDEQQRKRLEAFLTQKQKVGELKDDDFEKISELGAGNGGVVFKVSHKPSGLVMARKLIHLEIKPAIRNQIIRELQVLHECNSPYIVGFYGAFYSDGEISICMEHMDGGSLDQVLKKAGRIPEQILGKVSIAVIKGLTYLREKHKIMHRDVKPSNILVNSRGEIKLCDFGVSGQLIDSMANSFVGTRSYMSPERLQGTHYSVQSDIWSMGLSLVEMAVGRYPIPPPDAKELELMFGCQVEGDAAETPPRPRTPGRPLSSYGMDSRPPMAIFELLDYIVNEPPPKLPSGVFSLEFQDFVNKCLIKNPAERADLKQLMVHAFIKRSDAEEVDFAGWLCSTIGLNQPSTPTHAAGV
Description: as §1

NEK6 = NEK6 (Homo sapiens, UniProt Q9HC98); settings: read-out: Dundee KSS % inhibition at 1uM
NEK6, sequence (Q9HC98 whole entry): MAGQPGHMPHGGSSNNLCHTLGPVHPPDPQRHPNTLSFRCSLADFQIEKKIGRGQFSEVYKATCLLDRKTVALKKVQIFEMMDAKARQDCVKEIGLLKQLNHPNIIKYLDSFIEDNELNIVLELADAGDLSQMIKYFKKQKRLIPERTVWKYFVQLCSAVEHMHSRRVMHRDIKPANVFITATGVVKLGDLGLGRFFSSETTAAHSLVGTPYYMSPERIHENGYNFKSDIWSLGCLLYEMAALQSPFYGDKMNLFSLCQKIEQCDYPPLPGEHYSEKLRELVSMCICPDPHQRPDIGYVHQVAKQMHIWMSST
Description: as §1

AuroraB = target: T10, AuroraB (Homo sapiens, UniProt Q96GD4); settings: read-out: Dundee KSS % inhibition at 1uM
T10 construct: gene AURKB
T10 sequence (Q96GD4 whole entry): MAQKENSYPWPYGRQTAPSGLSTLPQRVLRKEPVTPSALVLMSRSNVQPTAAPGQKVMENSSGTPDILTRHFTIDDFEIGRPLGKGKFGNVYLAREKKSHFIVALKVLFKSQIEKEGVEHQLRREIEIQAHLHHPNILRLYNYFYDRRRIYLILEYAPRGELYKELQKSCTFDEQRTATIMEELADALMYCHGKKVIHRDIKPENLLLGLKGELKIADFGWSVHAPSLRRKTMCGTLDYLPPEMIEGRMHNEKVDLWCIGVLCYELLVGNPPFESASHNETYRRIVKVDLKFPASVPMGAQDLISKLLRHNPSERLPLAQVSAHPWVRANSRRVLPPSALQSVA
Description: as §1

PRK2 = target: T11, PRK2 (Homo sapiens, UniProt Q16513); settings: read-out: Dundee KSS % inhibition at 1uM
T11 construct: gene PKN2
Description: as §1

SRPK1 = SRPK1 (Homo sapiens, UniProt Q96SB4); settings: read-out: Dundee KSS % inhibition at 1uM
SRPK1, sequence (Q96SB4 whole entry): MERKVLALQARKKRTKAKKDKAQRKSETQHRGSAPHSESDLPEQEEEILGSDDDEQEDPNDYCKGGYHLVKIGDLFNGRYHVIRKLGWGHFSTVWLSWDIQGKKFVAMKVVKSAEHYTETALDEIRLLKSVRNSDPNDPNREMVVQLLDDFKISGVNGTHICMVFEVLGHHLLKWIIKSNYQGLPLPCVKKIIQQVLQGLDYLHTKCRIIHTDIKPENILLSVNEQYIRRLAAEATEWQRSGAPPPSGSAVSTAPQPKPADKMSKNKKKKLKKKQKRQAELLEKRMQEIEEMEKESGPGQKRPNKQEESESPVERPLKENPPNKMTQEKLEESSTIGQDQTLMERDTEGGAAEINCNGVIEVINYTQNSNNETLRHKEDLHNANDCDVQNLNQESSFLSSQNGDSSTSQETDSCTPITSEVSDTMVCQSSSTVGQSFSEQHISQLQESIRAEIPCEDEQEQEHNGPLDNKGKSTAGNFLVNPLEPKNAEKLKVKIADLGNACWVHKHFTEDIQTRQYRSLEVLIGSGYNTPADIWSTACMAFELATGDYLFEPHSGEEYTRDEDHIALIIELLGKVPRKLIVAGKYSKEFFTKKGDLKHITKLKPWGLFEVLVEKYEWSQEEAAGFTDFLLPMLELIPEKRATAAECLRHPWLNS
Description: as §1

JNK/SAPK1c = target: T12, JNK/SAPK1c (Homo sapiens, UniProt P45983); settings: read-out: Dundee KSS % inhibition at 1uM
T12 construct: gene MAPK8
Description: as §1

MNK1 = target: T13, MNK1 (Homo sapiens, UniProt Q9BUB5); settings: read-out: Dundee KSS % inhibition at 1uM
T13 construct: gene MKNK1
Description: as §1

rat ROCKII = target: T14, rat ROCKII (Rattus norvegicus, UniProt Q62868); settings: read-out: Dundee KSS % inhibition at 1uM
T14 construct: gene Rock2
Description: as §1

ACVR1B (ALK4) = ACVR1B (ALK4) (Homo sapiens, UniProt P36896); set-up: Invitrogen SelectScreen kinase panel, percent inhibition at 1 uM, ATP at Km; settings: read-out: Invitrogen KSS %Inh at 1 µM
ACVR1B (ALK4), sequence (P36896 whole entry): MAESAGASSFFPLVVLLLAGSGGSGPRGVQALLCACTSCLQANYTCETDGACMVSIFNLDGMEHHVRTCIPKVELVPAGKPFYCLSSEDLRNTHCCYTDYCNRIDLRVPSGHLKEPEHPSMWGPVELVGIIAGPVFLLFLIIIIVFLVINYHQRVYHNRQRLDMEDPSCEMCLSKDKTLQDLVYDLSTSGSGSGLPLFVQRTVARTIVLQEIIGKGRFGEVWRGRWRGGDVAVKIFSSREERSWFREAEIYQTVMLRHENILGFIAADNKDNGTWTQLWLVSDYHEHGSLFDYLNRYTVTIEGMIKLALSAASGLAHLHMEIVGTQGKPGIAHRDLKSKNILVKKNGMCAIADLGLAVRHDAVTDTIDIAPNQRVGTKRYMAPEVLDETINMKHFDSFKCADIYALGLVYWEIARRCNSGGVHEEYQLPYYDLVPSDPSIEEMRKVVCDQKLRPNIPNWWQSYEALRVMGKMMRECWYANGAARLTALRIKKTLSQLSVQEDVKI
Outline: (§2)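 Commercial kinase panel screens run with ATP at the Km for each kinase. Compounds tested at 1 µM final concentration; values are % inhibition of phosphorylation relative to control.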

PRKCB1 (PKC beta I) = target: T15, PRKCB1 (PKC beta I) (Homo sapiens, UniProt P05771); set-up: Invitrogen SelectScreen kinase panel, percent inhibition at 1 uM, ATP at Km; settings: read-out: Invitrogen KSS %Inh at 1 µM
T15 construct: gene PRKCB; isoform beta I
Outline: as §2

FYN = FYN (Homo sapiens, UniProt P06241); set-up: Invitrogen SelectScreen kinase panel, percent inhibition at 1 uM, ATP at Km; settings: read-out: Invitrogen KSS %Inh at 1 µM
FYN, sequence (P06241 whole entry): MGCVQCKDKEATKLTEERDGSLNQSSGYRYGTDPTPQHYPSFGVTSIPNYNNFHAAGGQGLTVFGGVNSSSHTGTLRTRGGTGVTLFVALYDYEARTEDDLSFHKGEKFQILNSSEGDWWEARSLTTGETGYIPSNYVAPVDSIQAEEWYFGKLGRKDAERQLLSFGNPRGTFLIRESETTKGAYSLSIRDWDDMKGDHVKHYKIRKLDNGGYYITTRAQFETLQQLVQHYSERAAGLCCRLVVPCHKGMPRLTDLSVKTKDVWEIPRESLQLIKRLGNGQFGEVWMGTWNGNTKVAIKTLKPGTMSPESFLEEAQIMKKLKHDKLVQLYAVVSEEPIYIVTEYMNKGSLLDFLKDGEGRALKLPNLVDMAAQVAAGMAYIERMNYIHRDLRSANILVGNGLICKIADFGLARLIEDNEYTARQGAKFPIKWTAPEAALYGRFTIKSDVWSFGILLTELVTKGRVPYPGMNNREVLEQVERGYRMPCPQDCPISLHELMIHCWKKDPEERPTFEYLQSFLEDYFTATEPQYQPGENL
Outline: as §2

CDK1/cyclinB = CDK1/cyclinB (Homo sapiens, UniProt P06493); set-up: Invitrogen SelectScreen kinase panel, percent inhibition at 1 uM, ATP at Km; settings: read-out: Invitrogen KSS %Inh at 1 µM
CDK1/cyclinB, sequence (P06493 whole entry): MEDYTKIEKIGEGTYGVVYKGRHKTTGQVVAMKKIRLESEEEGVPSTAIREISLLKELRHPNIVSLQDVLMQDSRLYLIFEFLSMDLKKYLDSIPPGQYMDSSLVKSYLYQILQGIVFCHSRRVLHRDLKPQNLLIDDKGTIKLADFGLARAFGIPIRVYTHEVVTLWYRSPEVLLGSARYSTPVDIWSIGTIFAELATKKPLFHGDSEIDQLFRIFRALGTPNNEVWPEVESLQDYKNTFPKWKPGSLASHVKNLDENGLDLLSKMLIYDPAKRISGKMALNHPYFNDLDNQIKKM
CDK1/cyclinB, sequence (P14635 whole entry partner): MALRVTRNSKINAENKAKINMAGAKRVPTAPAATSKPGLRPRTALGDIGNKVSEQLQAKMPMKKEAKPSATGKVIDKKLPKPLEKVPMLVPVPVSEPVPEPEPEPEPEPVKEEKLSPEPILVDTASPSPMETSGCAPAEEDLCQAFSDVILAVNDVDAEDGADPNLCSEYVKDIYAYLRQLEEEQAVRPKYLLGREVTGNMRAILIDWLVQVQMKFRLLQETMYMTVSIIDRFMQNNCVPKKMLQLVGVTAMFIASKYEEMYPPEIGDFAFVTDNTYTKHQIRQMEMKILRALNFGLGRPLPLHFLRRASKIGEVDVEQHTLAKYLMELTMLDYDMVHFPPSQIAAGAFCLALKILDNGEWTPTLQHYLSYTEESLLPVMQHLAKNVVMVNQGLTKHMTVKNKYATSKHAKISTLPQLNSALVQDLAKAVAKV
Outline: as §2

Structure (SMILES) | inhibition at 1 µM (CHK1) [%] | inhibition at 1 µM (ERK8) [%] | inhibition at 1 µM (IKKbeta) [%] | inhibition at 1 µM (SAPK2A/p38) [%] | inhibition at 1 µM (EF2K) [%] | inhibition at 1 µM (MAPKAP-K1b) [%] | inhibition at 1 µM (SGK) [%] | inhibition at 1 µM (DYRK2) [%] | inhibition at 1 µM (MKK1) [%] | inhibition at 1 µM (NEK6) [%] | inhibition at 1 µM (AuroraB) [%] | inhibition at 1 µM (PRK2) [%] | inhibition at 1 µM (SRPK1) [%] | inhibition at 1 µM (JNK/SAPK1c) [%] | inhibition at 1 µM (MNK1) [%] | inhibition at 1 µM (rat ROCKII) [%] | inhibition at 1 µM (ACVR1B (ALK4)) [%] | inhibition at 1 µM (PRKCB1 (PKC beta I)) [%] | inhibition at 1 µM (FYN) [%] | inhibition at 1 µM (CDK1/cyclinB) [%]
OCCn1cc(-c2cnc3nnn(Cc4ccc5ncccc5c4)c3n2)cn1 [METi, PF-04217903] | -1.96 | 14.8 | 22.5 | 2.86 | -13.1 | 24.9 | 29.4 | 14.8 | 25.2 | 8.99 | 11.2 | 11.7 | 13.5 | 4.04 | -8.48 | 12.8 | – | – | – | –
N#CCCNc1nccc(-c2cn(CC(F)F)nc2-c2cnc3[nH]ccc3c2)n1 [RAFi, PF-04880594] | – | – | – | – | – | – | – | – | – | – | – | – | – | – | – | – | 7 | 36 | -4 | -1

Source: PMC3382171 (PLoS ONE, 2012)
